± gives the standard deviation of the averaged measurements.
Experiments:
U-2 OS [1] = test: intracellular GSH:GSSG ratio (calculated); higher = more reduced glutathione pool; settings: 24 h
Method in brief: (§1)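 Most compounds were tested at 20, 10 and 5 μM with 0.4% DMSO, applied by pin tool to U-2 OS cells 24 h after seeding at 750 per well in white low-volume 384-well plates, followed by 24 h at 37 °C. Separate plates were read by luminescence for total glutathione and GSSG (GSH/GSSG-Glo) or for viability (CellTiter-Glo). Background- and row/column-corrected data are shown relative to vehicle or as a GSH:GSSG ratio.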

U-2 OS [2] = test: cell viability (CellTiter-Glo) relative to DMSO (% of control); higher = more viable; settings: 24 h
Method in brief: as §1

U-2 OS [3] = test: total intracellular glutathione (GSH + GSSG) relative to DMSO (% of control); higher = more glutathione; settings: 24 h
Method in brief: as §1

U-2 OS [4] = test: cell painting activity score (Mahalanobis distance from DMSO wells); higher = stronger morphological phenotype; settings: 24 h
Method in brief: (§2)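 Cell painting used U-2 OS cells at about 1,500 per well in 384-well plates, treated by pin tool for 24 h at 37 °C, usually at six 2-fold concentrations from 20 μM to 625 nM. Cells were stained with MitoTracker, concanavalin A, phalloidin, wheat germ agglutinin, Hoechst and SYTO 14 and imaged on an Opera Phenix. Features were extracted with CellProfiler and normalized to DMSO cells on the same plate. The activity score is the Mahalanobis distance from DMSO wells; cell count is relative to DMSO wells. Values are means of four replicate plates.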

U-2 OS [5] = test: relative cell count vs DMSO (cell painting) (fraction of DMSO control); higher = more cells remaining (less cytotoxic); settings: 24 h
Method in brief: as §2

U-2 OS [6] = test: AUC of culture confluence over time (live-cell imaging) (AUC (confluence % x time)); higher = more confluent culture (less growth inhibition)
Method in brief: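 In 384-well plates, U-2 OS cells were seeded at 750 per well in F-12K medium containing 10% FBS. A pin tool added compounds 24 h after seeding, most at 20, 10 and 5 μM, along with 0.2% DMSO. Confluence was then followed at 37 °C on an Incucyte S3 (10x objective), with images every 4 h for up to 60 h. Values give the area under the confluence-versus-time curve.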

| Compound | intracellular GSH:GSSG ratio (U-2 OS [1]; 5 µM) | intracellular GSH:GSSG ratio (U-2 OS [1]; 10 µM) | intracellular GSH:GSSG ratio (U-2 OS [1]; 20 µM) | intracellular GSH:GSSG ratio (U-2 OS [1]; 40 µM) | intracellular GSH:GSSG ratio (U-2 OS [1]; 80 µM) | cell viability (U-2 OS [2]; 5 µM) | cell viability (U-2 OS [2]; 10 µM) | cell viability (U-2 OS [2]; 20 µM) | cell viability (U-2 OS [2]; 40 µM) | cell viability (U-2 OS [2]; 80 µM) | total intracellular glutathione (U-2 OS [3]; 5 µM) | total intracellular glutathione (U-2 OS [3]; 10 µM) | total intracellular glutathione (U-2 OS [3]; 20 µM) | total intracellular glutathione (U-2 OS [3]; 40 µM) | total intracellular glutathione (U-2 OS [3]; 80 µM) | cell painting activity score (U-2 OS [4]; 0.625 µM) | cell painting activity score (U-2 OS [4]; 1.25 µM) | cell painting activity score (U-2 OS [4]; 2.5 µM) | cell painting activity score (U-2 OS [4]; 5 µM) | cell painting activity score (U-2 OS [4]; 10 µM) | cell painting activity score (U-2 OS [4]; 20 µM) | cell painting activity score (U-2 OS [4]; 40 µM) | cell painting activity score (U-2 OS [4]; 80 µM) | relative cell count (U-2 OS [5]; 0.625 µM) | relative cell count (U-2 OS [5]; 1.25 µM) | relative cell count (U-2 OS [5]; 2.5 µM) | relative cell count (U-2 OS [5]; 5 µM) | relative cell count (U-2 OS [5]; 10 µM) | relative cell count (U-2 OS [5]; 20 µM) | relative cell count (U-2 OS [5]; 40 µM) | relative cell count (U-2 OS [5]; 80 µM) | AUC of culture confluence over time (U-2 OS [6]; 5 µM) | AUC of culture confluence over time (U-2 OS [6]; 10 µM) | AUC of culture confluence over time (U-2 OS [6]; 20 µM) | AUC of culture confluence over time (U-2 OS [6]; 40 µM) | AUC of culture confluence over time (U-2 OS [6]; 80 µM) |
| --- | --- | --- | --- | --- | --- | --- | --- | --- | --- | --- | --- | --- | --- | --- | --- | --- | --- | --- | --- | --- | --- | --- | --- | --- | --- | --- | --- | --- | --- | --- | --- | --- | --- | --- | --- | --- |
| O=C(/C(C(N1CC2=CC=CC=C2)=O)=C/C3=C(C)C=C(O)C=C3C)N(CC4=CC=CC=C4)C1=O | 21.3 | 22.8 | 29.1 | 19.1 | 12.4 | 97 ± 6.9 | 98.1 ± 2.9 | 102 ± 6.1 | 70 ± 23 | 14.7 ± 7.9 | 99.8 ± 4.9 | 98.5 ± 2.1 | 104 ± 5.8 | 77.3 ± 11 | 27.7 ± 8 | 3.82 | 5.14 | 5.14 | 4.49 | 9.6 | 10.8 | 8.64 | 16.5 | 0.901 | 0.839 | 0.861 | 0.841 | 0.776 | 0.292 | 0.419 | 0.0657 | 50.9 | 49.8 | 46.2 | 34.6 | 12.1 |
| CNC(=O)Nc1ccc2c(c1)CC[C@@]21OC(=O)N(CC(=O)N(Cc2ccc(F)cc2)[C@@H](C)C(F)(F)F)C1=O | 27.9 | 31.4 | 30.9 | – | – | 93.1 ± 1.9 | 83.6 ± 4.3 | 85.3 ± 5 | – | – | 81.7 ± 3.5 | 74.9 ± 6.2 | 79 ± 7.5 | – | – | 8.32 | 8.2 | 8.22 | 8.54 | 9.44 | 10.2 | – | – | 1.04 | 0.976 | 1.04 | 1.02 | 1.05 | 1 | – | – | 44.7 | 44 | 42.6 | – | – |
| CCCC1(c2ccccc2)NC(=O)N(CC(=O)N(C)Cc2c(F)cccc2Cl)C1=O (configuration not stated) | 20.7 | 26.8 | 22.5 | – | – | 101 ± 3.2 | 102 ± 2.8 | 100 ± 2.9 | – | – | 102 ± 4.9 | 104 ± 2.5 | 101 ± 3.9 | – | – | 4.41 | 4.87 | 5.72 | 6.63 | 7.72 | 8.18 | – | – | 1.02 | 0.978 | 1.04 | 1.03 | 0.991 | 1.04 | – | – | 53.9 | 48.4 | 48.7 | – | – |
| COC(=O)[C@]1(C)CC[C@]2(C)CC[C@]3(C)C4=CC=C5C(=CC(=O)C(O)=C5C)[C@]4(C)CC[C@@]3(C)[C@@H]2C1 | 0.695 | 0.536 | – | – | – | 5.12 ± 0.81 | 1.29 ± 0.58 | 0.733 ± 0.056 | – | – | 9.07 ± 0.87 | 4.42 ± 1.3 | 3.06 ± 0.32 | – | – | 24.2 | 33.5 | 32.8 | 33.4 | 33.5 | 27.7 | – | – | 0.0681 | 0.0621 | 0.0626 | 0.0644 | 0.0539 | 0.117 | – | – | 11.3 | 11.9 | 14.2 | – | – |
| CC1(C)CCC2=C(O1)c1ccccc1C(=O)C2=O | 15.5 | 11.1 | 3.75 | – | – | 79.8 ± 7.4 | 57 ± 15 | 17 ± 33 | – | – | 71.8 ± 4.9 | 56.2 ± 3.8 | 6.31 ± 1.1 | – | – | 3.9 | 4.86 | 5.01 | 5.34 | 9.42 | 18.4 | – | – | 1.05 | 0.993 | 1.08 | 0.933 | 0.767 | 0.227 | – | – | 27 | 19.8 | 20.1 | – | – |
| CCCCCC[C@H]1C(=O)O[C@H](C)[C@H](NC(=O)c2cccc(NC=O)c2O)C(=O)O[C@@H](C)[C@@H]1OC(=O)CC(C)C | 21.6 | 23.5 | 22.4 | – | – | 54.1 ± 5.4 | 59.2 ± 1.6 | 56.2 ± 3.1 | – | – | 65.6 ± 6.7 | 69.4 ± 4 | 66.1 ± 3 | – | – | 12.7 | 13.2 | 12.9 | 12.9 | 12.8 | 12.2 | – | – | 0.8 | 0.81 | 0.802 | 0.8 | 0.783 | 0.831 | – | – | 38 | 38 | 38.3 | – | – |
| CO[C@H]1C[C@@H]2CC[C@@H](C)[C@@](O)(O2)C(=O)C(=O)N2CCCC[C@H]2C(=O)O[C@H]([C@H](C)C[C@@H]2CC[C@@H](O)[C@H](OC)C2)CC(=O)[C@H](C)/C=C(\C)[C@@H](O)[C@@H](OC)C(=O)[C@H](C)C[C@H](C)/C=C/C=C/C=C/1C | 25.7 | 24.7 | 24.9 | – | – | 87.3 ± 5 | 90.6 ± 2.9 | 80 ± 6.5 | – | – | 90.5 ± 5.3 | 93.7 ± 5.7 | 102 ± 7 | – | – | 11.4 | 12.3 | 12.1 | 10.8 | 12.1 | 11.9 | – | – | 0.953 | 0.926 | 0.903 | 0.956 | 0.916 | 0.852 | – | – | 33.6 | 34.2 | 34.8 | – | – |
| CCC(=O)N1CCN(c2ccc(-n3c(=O)ccc4cnc5ccc(-c6cnc7ccccc7c6)cc5c43)cc2C(F)(F)F)CC1 | 16.1 | 15 | 13.4 | – | – | 66.4 ± 3.2 | 66.8 ± 3.4 | 61.4 ± 4 | – | – | 58.8 ± 4.2 | 58.6 ± 4.8 | 64 ± 3.3 | – | – | 12.8 | 12.6 | 12.4 | 13.4 | 13.2 | 14.2 | – | – | 0.752 | 0.716 | 0.68 | 0.714 | 0.683 | 0.656 | – | – | 26.9 | 27.2 | 26.1 | – | – |
| Nc1nc(-c2ccccc2)[n+](-c2ccccc2)s1 | 25.1 | 18.2 | 2.7 | – | – | 106 ± 3.7 | 105 ± 6.1 | 16 ± 10 | – | – | 113 ± 5.1 | 117 ± 8.2 | 26.8 ± 7.4 | – | – | 7.03 | 3.42 | 2.65 | 3.42 | 3.28 | 9.72 | – | – | 1.06 | 1.11 | 1.04 | 1.13 | 1.08 | 0.605 | – | – | 39.6 | 44.4 | 43.3 | – | – |
